Experimental data: article PMC7249060, “The Antiproliferative Effects of Flavonoid MAO Inhibitors on Prostate Cancer Cells” (Molecules, 2020)

Experiments:
[1] = biological target: T1, hMAO-A (Homo sapiens, UniProt P21397); test: Michaelis–Menten kinetics / mode of inhibition (MAO-Glow, LDS substrate); format: biochemical; settings: for Alpha parameter (mixed model of enzyme inhibition): GraphPad Prism mixed model; for mode of hMAO-A inhibition: Lineweaver–Burk, alpha analysis; for Vmax of hMAO-A with increasing inhibitor (minimum and maximum average means): inhibitor 0 to IC50 × 4
T1 construct: purchased Sigma-Aldrich Co. (St. Louis, MO, USA)
T1 sequence (P21397 1-527): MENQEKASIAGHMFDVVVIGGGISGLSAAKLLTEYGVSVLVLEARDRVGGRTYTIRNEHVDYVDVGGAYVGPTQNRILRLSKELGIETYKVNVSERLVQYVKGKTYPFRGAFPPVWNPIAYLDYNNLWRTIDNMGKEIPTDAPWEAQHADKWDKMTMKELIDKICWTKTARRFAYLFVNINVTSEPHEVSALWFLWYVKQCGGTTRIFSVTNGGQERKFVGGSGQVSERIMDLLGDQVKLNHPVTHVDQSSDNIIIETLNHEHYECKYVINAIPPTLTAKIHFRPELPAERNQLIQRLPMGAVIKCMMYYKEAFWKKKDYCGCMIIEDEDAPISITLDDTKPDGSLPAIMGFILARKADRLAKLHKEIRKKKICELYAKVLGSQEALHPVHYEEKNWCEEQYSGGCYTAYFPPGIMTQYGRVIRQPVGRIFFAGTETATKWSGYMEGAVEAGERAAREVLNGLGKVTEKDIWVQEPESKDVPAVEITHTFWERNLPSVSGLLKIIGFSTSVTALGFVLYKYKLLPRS
Experimental: The hMAO-A modes of inhibition by KKR21 and KKR11 were investigated using the Michaelis–Menten reaction kinetics and MAO-Glow™ assay. A negative control buffer and seven serially diluted LDS concentrations were prepared from a maximum final of 75 μM. Other negative control buffers and three different concentrations of each KKR were prepared to resemble IC50/4, IC50, and IC50 × 4 final concentrations (final KKR11 of 0.08, 0.31, and 1.24 μM, and final KKR21 of 0.005, 0.019, and 0.076 μM, respectively). Each KKR was mixed with the isozyme in a 2:1 ratio volume for a final concentration of 0.44 U/mL. The reactions were initiated by adding 37.5 μL of the prepared mixture to 12.5 μL LDS substrate in the 96-well plates. Opaque plates were incubated at 37 °C for 60 min. The enzymatic reaction was terminated by adding 50 μL RLDR to the plates and then was re-incubated for 30 min at RT. The generated ALU was read on the Bio-Tek Synergy HTX Multi-Reader.
The Vmax and Km were calculated from the averaged X and Y intercepts of Lineweaver–Burk (LWB) linear regressions that were analyzed from the Michaelis–Menten curve data. Vmax = 1/Y-intercept, Km = −1/X-intercept(2)
Inhibitor-constant (Ki) was calculated from Cheng–Prosuff’s equation Ki (comp) = IC50/(1+[S]/Km)(3)

[2] = tested on: PC3 cells; test: Antiproliferation screen assay, resazurin, 72 h; format: cell-based, human; settings: 50 μM
[3] = tested on: LNCaP cells; test: Viability screen assay, resazurin, 24 h; format: cell-based, human; settings: 50 μM, 90% viability as margin of cytotoxicity
Experimental: We examined the cytotoxic effects of all 20 synthesized KKRs on the three human PCa cell lines LNCaP, DU145, and PC3, after a 24 h exposure period. Non-toxic TAX was used for comparison. Briefly, cultured cells were seeded in black transparent bottom 96-well microplates at 50,000 cells/175-µL/well in experimental media (RPMI1640 for LNCaP, EMEM for DU145, and DMEM/F12K for PC3), supplied with 5% FBS and 1% P/S. Wells of media without cells were considered blanks and negative controls. The plates were incubated overnight at 37 °C in 5% CO2 to allow cell attachment. For each compound, a working solution of 8X KKR in sterile […] HEPES in HBSS pH buffer of 7.4 was prepared for a final concentration of 50 μM each. The three attached cell types were treated immediately with the related buffer being added to the control wells. A sterile fluorescence-based solution of the resazurin reagent of 0.5 mg/mL in HBSS was prepared. After 24 h, the cells were exposed to 15% v/v of the sterile resazurin reagent, and the plates were re-incubated for 4.5 h to allow redox reaction. All plates were read under 530/590-nm excitation/emission wavelengths using Bio-Tek Synergy HTX Multi-reader as a microplate fluorescence reader.

[4] = competitive model, Ki = IC50/(1 + [S]/Km)

Row | Ki ([1]; Cheng–Prosuff's equation) | Alpha parameter (mixed model of enzyme inhibition) [1] | mode of hMAO-A inhibition [1] | Ki [1, 4] | Vmax of hMAO-A with increasing inhibitor (minimum and maximum average means) [1] | SMILES | antiproliferative effect in screen [2] | cytotoxicity / cell viability [3]
1 | ≤ 7.4 nM | >>1 | reversible competitive inhibition | 7.4 nM | 3 × 10^−6–4 × 10^−6 U/mL/h | COc1cc(O)c(C(=O)/C=C/c2ccc(Cl)c(Cl)c2)c(OC)c1 [KKR11, (E)-3-(3,4-dichlorophenyl)-1-(2-hydroxy-4,6-dimethoxyphenyl)prop-2-en-1-one] | – | –
2 | – | – | – | – | – | COc1cc(OC)c2c(=O)c(O)c(/C=C/c3cc(OC)c(OC)c(OC)c3)oc2c1 [KKR2A, (E)-3-hydroxy-5,7-dimethoxy-2-(3,4,5-trimethoxystyryl)-4H-chromen-4-one] | no effects on any of the screened PCa cell models | –
3 | – | – | – | – | – | O=c1c(O)c(-c2ccccc2)oc2c(Cl)cc(Cl)cc12 [KKR7, 6,8-dichloro-3-hydroxy-2-phenyl-4H-chromen-4-one] | – | affected the LNCaP cells
4 | ≤ 7.4 nM | >>1 | reversible competitive inhibition | 1.7 nM | 1.38 × 10^−6–1.43 × 10^−6 U/mL/h | O=c1cc(-c2ccccc2)oc2cc(Cl)c(Cl)cc12 [KKR21, 6,7-dichloro-2-phenyl-4H-chromen-4-one] | no effects on any of the screened PCa cell models | –
